The values that follow come from PubChem BioAssay (NCI).

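Five compound concentrations were applied to cells in 96-well plates for 48 hours; endpoints were derived by simple linear interpolation of the resulting dose-response curve. GI50 = concentration required for 50% inhibition of growth. At the TGI there is no net growth.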

Among the test systems are HOP-92 NSCLC; LOX IMVI melanoma; HL-60(TB) leukemia; HOP-62 NSCLC; NCI-H460 lung; SN12C renal; OVCAR-4 ovarian; SF-268 CNS; SK-OV-3 ovarian; OVCAR-3 ovarian; A549 NSCLC; ACHN renal; NCI-H522 lung; MDA-MB-435; MCF7 breast; PC-3 prostate; DU-145 prostate.
What all share (test): growth of human tumour cells (NCI), 48 h

For `COc1ccc(/C(=C/n2ccnc2)C(O)c2ccc(OC)c(OC)c2)cc1OC` (configuration not stated), the TGI in the assay with HOP-92 NSCLC, in the assay with LOX IMVI melanoma, with HL-60(TB) leukemia, in the assay on HOP-62 NSCLC, in the assay with NCI-H460 lung and in the assay on SN12C renal was > 100 µM in each case. For the same compound, the TGI in the assay with OVCAR-4 ovarian, with SF-268 CNS, in the assay on SK-OV-3 ovarian and with OVCAR-3 ovarian was > 100 µM in each case.
`C/C=C1\CN2CCc3c([nH]c4ccccc34)C2C=C1CCO` (configuration not stated): the TGI with HOP-92 NSCLC, in the assay on LOX IMVI melanoma, with A549 NSCLC, in the assay with HL-60(TB) leukemia, with HOP-62 NSCLC and with NCI-H460 lung was > 340 µM each time. Further, the TGI in the assay with SN12C renal, in the assay with SF-268 CNS, in the assay with SK-OV-3 ovarian, with ACHN renal, with OVCAR-3 ovarian and in the assay on NCI-H522 lung was > 340 µM in each case.
For the compound `CN(C)CCNC(=O)Cn1cnc2cccc([N+](=O)[O-])c2c1=O`, the TGI in the assay on LOX IMVI melanoma, in the assay with MDA-MB-435, in the assay with A549 NSCLC, with HL-60(TB) leukemia, in the assay with HOP-62 NSCLC and with NCI-H460 lung was > 100 µM each time. The TGI with SN12C renal, in the assay with OVCAR-4 ovarian, in the assay with SF-268 CNS, in the assay with SK-OV-3 ovarian, in the assay with ACHN renal and in the assay on MCF7 breast was > 100 µM throughout. The TGI in the assay on OVCAR-3 ovarian, in the assay with PC-3 prostate, in the assay on NCI-H522 lung and with DU-145 prostate was > 100 µM each time.
On to `CCCCNC(=O)C1C2CCC(O2)C1C(=O)O` (configuration not stated), for which the TGI is 39 µM in the assay with HOP-92 NSCLC; 34.7 µM with LOX IMVI melanoma; > 100 µM in the assay with A549 NSCLC; > 100 µM in the assay on HOP-62 NSCLC; > 100 µM in the assay on NCI-H460 lung; 30.9 µM in the assay with SN12C renal. Besides, the TGI with OVCAR-4 ovarian is > 100 µM; with SF-268 CNS, 45.1 µM; in the assay on SK-OV-3 ovarian, 53.7 µM; in the assay with ACHN renal, 57.7 µM; in the assay on OVCAR-3 ovarian it was 31.5 µM; in the assay with NCI-H522 lung it was 41.8 µM.
Regarding `CCCCCCCCCC(=O)OCC1OC(n2cc(F)c(=O)[nH]c2=O)C(NC(=O)OCc2ccccc2)C(OC(=O)CCCCCCCCC)C1O` (configuration not stated), the TGI with HOP-92 NSCLC was 36.3 µM; in the assay with LOX IMVI melanoma it was 30.2 µM; in the assay with A549 NSCLC, > 100 µM; with HL-60(TB) leukemia it was 55.8 µM; in the assay with HOP-62 NSCLC, > 100 µM; in the assay on SN12C renal it was 29.6 µM. For the same compound, the TGI with OVCAR-4 ovarian is 40.6 µM; with SF-268 CNS it was > 100 µM; in the assay with SK-OV-3 ovarian, > 100 µM; in the assay with ACHN renal, > 100 µM; in the assay with OVCAR-3 ovarian, 48.5 µM; in the assay with NCI-H522 lung, 72.2 µM.
For the compound `C#CCN(N=O)C(=O)NCCCCC(NC(C)=O)C(=O)NCc1ccccc1` (configuration not stated), the TGI in the assay on HOP-92 NSCLC, in the assay with LOX IMVI melanoma, in the assay on A549 NSCLC, in the assay with HOP-62 NSCLC, in the assay on NCI-H460 lung and with SN12C renal was > 100 µM throughout. In addition, the TGI in the assay on OVCAR-4 ovarian, with SF-268 CNS, in the assay with SK-OV-3 ovarian, in the assay with ACHN renal, with OVCAR-3 ovarian and in the assay on NCI-H522 lung was > 100 µM in each case.
In the case of `O=c1cc(-c2ccco2)[nH]c2cc3c(cc12)OCO3`, the TGI in the assay on LOX IMVI melanoma was > 100 µM; in the assay with A549 NSCLC, > 100 µM; in the assay on HL-60(TB) leukemia, > 100 µM; in the assay with HOP-62 NSCLC it was 43.8 µM; in the assay with NCI-H460 lung, > 100 µM; in the assay on SN12C renal, > 100 µM. Also, the TGI with OVCAR-4 ovarian, with SF-268 CNS, with ACHN renal and with OVCAR-3 ovarian was > 100 µM throughout. In addition, the figures for the GI50 in the assay on SF-268 CNS and in the assay on OVCAR-3 ovarian were 42.1 µM and 42.9 µM, respectively.
Regarding `O/N=C1/CC2(N3CCOCC3)C3CC/C(=N\O)C2CC1(Cc1ccccc1)C3` (configuration not stated), the TGI in the assay on LOX IMVI melanoma, in the assay on MDA-MB-435, in the assay with A549 NSCLC, with HL-60(TB) leukemia, in the assay on HOP-62 NSCLC and in the assay on NCI-H460 lung was > 100 µM throughout. For the same compound, the TGI with SN12C renal, with OVCAR-4 ovarian, in the assay with SF-268 CNS, in the assay on SK-OV-3 ovarian, in the assay on ACHN renal and in the assay on MCF7 breast was > 100 µM in each case. The TGI in the assay on OVCAR-3 ovarian, in the assay with PC-3 prostate, with NCI-H522 lung and in the assay on DU-145 prostate was > 100 µM throughout.
Take `CCc1cc(CCC(=O)Nc2ccccc2[N+](=O)[O-])[nH]c(=S)n1`: the TGI in the assay on HOP-92 NSCLC, in the assay on LOX IMVI melanoma, in the assay on A549 NSCLC, in the assay with HL-60(TB) leukemia, in the assay on HOP-62 NSCLC and in the assay with NCI-H460 lung was > 100 µM each time. Besides, the TGI in the assay with SF-268 CNS, in the assay on SK-OV-3 ovarian, in the assay with ACHN renal and with OVCAR-3 ovarian was > 100 µM each time.
As for `COc1ccc(/C=C2\CCC(CCN(C)C)(C3=CCCC3)C2=O)cc1Br` (configuration not stated), the TGI in the assay on HOP-92 NSCLC is 11.3 µM; in the assay on LOX IMVI melanoma, 15.4 µM; in the assay with A549 NSCLC, 24 µM; in the assay on HL-60(TB) leukemia it was 4.63 µM; in the assay on HOP-62 NSCLC, 30.9 µM; in the assay with NCI-H460 lung, 25.6 µM. The TGI in the assay on SN12C renal turned out to be 22 µM; in the assay on OVCAR-4 ovarian it was 14.5 µM; in the assay with SF-268 CNS, 23 µM; in the assay with ACHN renal it was 21.5 µM; with OVCAR-3 ovarian, 19.3 µM; with NCI-H522 lung, 3.98 µM.
`Cc1ccc(C(=O)/C=C/c2cccc([N+](=O)[O-])c2)cc1`: the TGI is > 100 µM in the assay on HOP-92 NSCLC; > 100 µM in the assay on LOX IMVI melanoma; > 100 µM with A549 NSCLC; > 85.8 µM in the assay on HL-60(TB) leukemia; > 100 µM with HOP-62 NSCLC; > 100 µM in the assay on NCI-H460 lung. Also, the TGI in the assay on SN12C renal, with OVCAR-4 ovarian, in the assay on SF-268 CNS, with SK-OV-3 ovarian, in the assay on ACHN renal and with OVCAR-3 ovarian was > 100 µM in each case. The TGI in the assay on NCI-H522 lung was > 100 µM.
